This is an account of results in publication PMC10939713 (Pharmaceutical research, 2024).

Entries after “also recorded” stand apart in the source; their conditions may differ. Structures can show the parent of a compound that is named as a salt.

For series [1] the following is noted: FaSSIF pH 6.5.
For series [2] the following is noted: rats; oral administration of EGCG and sunitinib; cited from earlier work.
The conditions of series [3]: FeSSIF pH 5.0.
Series [4] can be described thus: Mouse pharmacokinetic natural product-drug interaction study. Conditions: for AUC(0-t) / Cmax / AUC0-4h / AUC0-24h / Metabolite-to-parent AUC0-4h ratio / Metabolite-to-parent AUC0-24h ratio: geometric mean (CV%); for tmax: median (range). It counts as in vivo, C57BL/6 mice.
The conditions of series [5]: rats; EGCG group (control group 79%); cited from earlier work.
The conditions of series [6]: cited from earlier work.
A short description of series [7]: Drug solubility in simulated intestinal fluids. The series is classed as physicochemical.
For series [8] the following is noted: cited from earlier work. This is another data set of the same source.
[9] abbreviates: mice, plasma, raloxifene 20 mg/kg oral with EGCG 12.96 mg/kg.
Setting [10] is: mice, plasma, raloxifene 20 mg/kg oral with green tea extract 200 mg/kg.
Setting [11] is: mice, raloxifene 20 mg/kg oral alone in vehicle.
Setting [12] is: mice, raloxifene 20 mg/kg oral with EGCG 12.96 mg/kg.
Setting [13] is: mice, raloxifene 20 mg/kg oral with green tea extract 200 mg/kg.

The logP is the decadic logarithm of the partition coefficient of the neutral form, usually between octanol and water. The term AUC(0-t) denotes the area under the concentration-time curve up to a stated or last time point. The low end stands for low exposure, the high end for high exposure. A word on the Cmax: it is the peak of the concentration-time curve.

On to `O=C(O[C@@H]1Cc2c(O)cc(O)cc2O[C@@H]1c1cc(O)c(O)c(O)c1)c1cc(O)c(O)c(O)c1` [EGCG, (−)-epigallocatechin gallate], for which the “effect on raloxifene solubility in FaSSIF (in words)” value in series [1] was “decreased the solubility”. Also, in series [2], the “reduction of sunitinib AUC0-∞” value was 52% and the “reduction of sunitinib Cmax” value is 48%. Besides, in series [3], the “effect on raloxifene solubility (concentration) in FeSSIF (in words)” value was “neither green tea extract nor EGCG significantly affected; also recorded: did not change; also recorded: Neither green tea extract nor EGCG had a significant effect”. Besides, the “effect on Cmax of raloxifene and raloxifene-6-glucuronide (in words)” value in series [4] (mice, compared to vehicle group, EGCG 12.96 mg/kg) is listed as “no effect”. In series [5], the “intestinal absorption of cholesterol from a test meal” value was 63%.
With `CC(C)(C)NCC(O)COc1cccc2c1CC(O)C(O)C2` (centres unmarked) [Nadolol], in series [6], the log partition coefficient (logP) is listed as 0.85. In addition, the “solubility in simulated intestinal fluids (in words)” value in series [7] (at 0.16 mg/mL) is given as “completely soluble”.
Consider `O=C(c1ccc(OCCN2CCCCC2)cc1)c1c(-c2ccc(O)cc2)sc2cc(O)ccc12` [Raloxifene, Raloxifene hydrochloride], for which the logP in series [6] is reported as 5.78. In series [8], the oral bioavailability is listed as ~ 2%. In addition, in series [7] (FeSSIF pH 5.0 vs FaSSIF pH 6.5), the “raloxifene solubility in FeSSIF compared to FaSSIF” value is given as 3.4 fold. In addition, the “overt effects in the mice after administration” value in series [4] (during the study) is “No overt effects”. For the same compound, the AUC(0-t) in series [4] (male, C57BL/6, mouse, plasma, po, 20 mg/kg, AUC0-4h, mice, raloxifene 20 mg/kg oral with EGCG 12.96 mg/kg) was 0.322 µM·h; in series [4] (male, C57BL/6, mouse, plasma, po, 20 mg/kg, AUC0-4h, mice, raloxifene 20 mg/kg oral with green tea extract 200 mg/kg), 0.2 µM·h; in series [4] (male, C57BL/6, mouse, plasma, po, 20 mg/kg, AUC0-24h, mice, raloxifene 20 mg/kg oral with EGCG 12.96 mg/kg) it was 0.867 µM·h; in series [4] (male, C57BL/6, mouse, plasma, po, 20 mg/kg, AUC0-24h, mice, raloxifene 20 mg/kg oral with green tea extract 200 mg/kg), 0.669 µM·h. Further, the maximum concentration (Cmax) worked out at 168 nM in series [4] (male, C57BL/6, mouse, plasma, po, 20 mg/kg, Cmax, mice, raloxifene 20 mg/kg oral with EGCG 12.96 mg/kg (0, 4, 8 h)) and 79 nM in series [4] (male, C57BL/6, mouse, plasma, po, 20 mg/kg, Cmax, mice, raloxifene 20 mg/kg oral with green tea extract 200 mg/kg (0, 4, 8 h)). Also, the tmax in series [4] (male, C57BL/6, mouse, plasma, po, 20 mg/kg, tmax, mice, raloxifene 20 mg/kg oral with EGCG 12.96 mg/kg) came out at 0.5 h; in series [4] (male, C57BL/6, mouse, plasma, po, 20 mg/kg, tmax, mice, raloxifene 20 mg/kg oral with green tea extract 200 mg/kg) it was 4 h.
Consider `O=C(c1ccc(OCCN2CCCCC2)cc1)c1c(-c2ccc(O)cc2)sc2cc(O[C@@H]3O[C@H](C(=O)O)[C@@H](O)[C@H](O)[C@H]3O)ccc12` [Raloxifene-6-glucuronide, raloxifene-6-glucuronide], for which the maximum concentration (Cmax) in series [4] (mice, plasma, raloxifene 20 mg/kg oral with EGCG 12.96 mg/kg (0, 4, 8 h)) worked out at 820 nM; in series [4] (mice, plasma, raloxifene 20 mg/kg oral with green tea extract 200 mg/kg (0, 4, 8 h)), 288 nM. The AUC0-4h is on record as 1200 (53) nM•h in series [4] (setting [9]) and 624 (31) nM•h in series [4] (setting [10]). Besides, the AUC0-24h is listed as 2150 (52) nM•h in series [4] (setting [9]) and 1560 (32) nM•h in series [4] (setting [10]). For the same compound, the figures for the “Metabolite-to-parent AUC0-4h ratio” value in series [4] (setting [11]), in series [4] (setting [12]) and in series [4] (setting [13]) were 2.74 (30), 3.74 (25) and 3.12 (34), respectively. Moreover, the results for the “Metabolite-to-parent AUC0-24h ratio” value in series [4] (setting [11]), in series [4] (setting [12]) and in series [4] (setting [13]) were 2.23 (36), 2.48 (38) and 2.33 (24), respectively. The tmax in series [4] (setting [11]) is 0.25 (0.25 - 0.5) h; in series [4] (setting [12]) it was 0.5 (0.25 - 4) h; in series [4] (setting [13]) it was 0.25 (0.25 - 0.5) h.
